The kinase profiling compilation of Christmann-Franck et al. (2016)
Values belong to the compound of their own block, whether it stands above or below them.

What was measured:
Experiment in all cases: radiometric filter-binding kinase assay
[1] = target: MAPKAPK2 (human) (UniProt P49137)
[2] = test system: ROCK2 (rat); conditions: accession and sequence are those of the human protein
[3] = test system: SGK1 (human), O00141 [S422D]
[4] = target: HIPK2 (human) (UniProt Q9H2X6)
[5] = target: MELK (human) (UniProt Q14680)
[6] = target: PIM1 (human) (UniProt P11309)
[7] = target: MAPK12 (human) (UniProt P53778)
[8] = target: MYLK (human) (UniProt Q15746)
[9] = target: PKN2 (human) (UniProt Q16513)
[10] = test system: RPS6KB1 (human), P23443 [T412E]
[11] = target: NEK2 (human) (UniProt P51955)
[12] = target: MAPK14 (human) (UniProt Q16539)
[13] = target: DYRK2 (human) (UniProt Q92630)
[14] = target: CHEK2 (human) (UniProt O96017)
[15] = target: STK3 (human) (UniProt Q13188)
[16] = target: DYRK3 (human) (UniProt O43781)
[17] = target: PRKCA (human) (UniProt P17252)
[18] = target: MAPKAPK5 (human) (UniProt Q8IW41)
[19] = target: RPS6KA1 KD1 KD2 (human) (UniProt Q15418)
[20] = target: PIM3 (human) (UniProt Q86V86)
[21] = target: IKBKE (human) (UniProt Q14164)
[22] = target: EPHA2 (human) (UniProt P29317)
[23] = target: FLT1 (human) (UniProt P17948)

HIPK2 (human), sequence (Q9H2X6 whole entry, looked up): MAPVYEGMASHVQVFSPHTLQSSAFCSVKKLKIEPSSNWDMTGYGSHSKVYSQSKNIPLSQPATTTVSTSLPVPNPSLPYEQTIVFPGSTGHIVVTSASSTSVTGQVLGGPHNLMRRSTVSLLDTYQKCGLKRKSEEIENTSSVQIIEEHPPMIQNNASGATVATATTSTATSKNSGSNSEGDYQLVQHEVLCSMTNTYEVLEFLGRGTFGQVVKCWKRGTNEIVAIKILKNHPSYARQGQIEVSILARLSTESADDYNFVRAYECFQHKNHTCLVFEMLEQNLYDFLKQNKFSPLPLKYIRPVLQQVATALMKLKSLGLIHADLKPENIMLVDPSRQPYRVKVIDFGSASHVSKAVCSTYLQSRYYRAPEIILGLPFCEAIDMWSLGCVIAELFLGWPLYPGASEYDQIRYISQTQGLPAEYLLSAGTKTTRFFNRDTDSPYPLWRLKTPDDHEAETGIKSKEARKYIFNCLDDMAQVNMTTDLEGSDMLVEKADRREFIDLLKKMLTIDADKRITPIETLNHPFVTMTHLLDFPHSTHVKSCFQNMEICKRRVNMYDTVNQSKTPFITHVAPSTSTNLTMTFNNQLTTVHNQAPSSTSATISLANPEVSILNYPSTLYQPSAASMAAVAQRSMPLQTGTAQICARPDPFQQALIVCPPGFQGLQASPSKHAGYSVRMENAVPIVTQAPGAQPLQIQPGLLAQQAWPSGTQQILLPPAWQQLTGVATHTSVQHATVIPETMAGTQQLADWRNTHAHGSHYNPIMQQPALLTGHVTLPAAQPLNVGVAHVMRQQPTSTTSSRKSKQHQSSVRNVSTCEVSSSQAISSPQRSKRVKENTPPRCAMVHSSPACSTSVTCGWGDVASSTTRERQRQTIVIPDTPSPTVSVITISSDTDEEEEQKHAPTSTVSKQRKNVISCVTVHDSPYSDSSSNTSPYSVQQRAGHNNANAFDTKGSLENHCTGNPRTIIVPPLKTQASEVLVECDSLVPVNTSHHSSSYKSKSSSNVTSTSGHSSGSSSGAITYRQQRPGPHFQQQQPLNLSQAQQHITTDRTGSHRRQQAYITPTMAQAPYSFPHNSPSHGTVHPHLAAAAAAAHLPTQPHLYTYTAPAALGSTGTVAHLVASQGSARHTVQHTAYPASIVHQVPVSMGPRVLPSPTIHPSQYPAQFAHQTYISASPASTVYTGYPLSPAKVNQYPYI
DYRK2 (human), sequence (Q92630 whole entry, looked up): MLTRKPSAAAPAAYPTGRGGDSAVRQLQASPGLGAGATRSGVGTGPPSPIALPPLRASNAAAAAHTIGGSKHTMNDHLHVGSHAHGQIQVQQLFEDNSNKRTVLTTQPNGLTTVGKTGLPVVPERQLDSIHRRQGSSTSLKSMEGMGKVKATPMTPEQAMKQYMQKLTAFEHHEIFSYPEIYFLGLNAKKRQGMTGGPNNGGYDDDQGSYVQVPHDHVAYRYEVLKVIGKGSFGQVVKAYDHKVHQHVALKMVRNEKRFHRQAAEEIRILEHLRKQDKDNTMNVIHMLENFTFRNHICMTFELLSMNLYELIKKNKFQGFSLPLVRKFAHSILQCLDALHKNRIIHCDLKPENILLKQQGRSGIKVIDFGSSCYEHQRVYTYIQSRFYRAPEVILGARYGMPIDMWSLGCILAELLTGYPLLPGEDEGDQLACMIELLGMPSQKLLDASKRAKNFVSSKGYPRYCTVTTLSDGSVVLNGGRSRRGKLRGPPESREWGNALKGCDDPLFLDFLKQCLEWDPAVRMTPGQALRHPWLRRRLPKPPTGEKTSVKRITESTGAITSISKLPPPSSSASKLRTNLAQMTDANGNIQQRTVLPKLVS
CHEK2 (human), sequence (O96017 whole entry, looked up): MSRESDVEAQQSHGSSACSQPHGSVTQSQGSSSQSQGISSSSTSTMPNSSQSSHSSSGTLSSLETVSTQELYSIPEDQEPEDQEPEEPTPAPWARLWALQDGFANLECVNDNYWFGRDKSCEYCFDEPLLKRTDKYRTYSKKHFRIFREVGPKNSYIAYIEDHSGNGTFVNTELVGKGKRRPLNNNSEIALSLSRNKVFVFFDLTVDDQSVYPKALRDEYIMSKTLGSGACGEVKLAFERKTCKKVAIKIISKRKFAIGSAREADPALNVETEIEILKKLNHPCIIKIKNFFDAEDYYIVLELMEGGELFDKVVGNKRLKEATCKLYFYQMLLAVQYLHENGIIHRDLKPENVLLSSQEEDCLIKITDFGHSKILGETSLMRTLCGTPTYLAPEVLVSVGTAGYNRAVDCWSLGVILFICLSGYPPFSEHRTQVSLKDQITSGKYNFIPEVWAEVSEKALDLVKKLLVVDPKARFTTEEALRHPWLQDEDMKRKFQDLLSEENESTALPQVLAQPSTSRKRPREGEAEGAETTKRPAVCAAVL
RPS6KA1 KD1 KD2 (human), sequence (Q15418 whole entry, looked up): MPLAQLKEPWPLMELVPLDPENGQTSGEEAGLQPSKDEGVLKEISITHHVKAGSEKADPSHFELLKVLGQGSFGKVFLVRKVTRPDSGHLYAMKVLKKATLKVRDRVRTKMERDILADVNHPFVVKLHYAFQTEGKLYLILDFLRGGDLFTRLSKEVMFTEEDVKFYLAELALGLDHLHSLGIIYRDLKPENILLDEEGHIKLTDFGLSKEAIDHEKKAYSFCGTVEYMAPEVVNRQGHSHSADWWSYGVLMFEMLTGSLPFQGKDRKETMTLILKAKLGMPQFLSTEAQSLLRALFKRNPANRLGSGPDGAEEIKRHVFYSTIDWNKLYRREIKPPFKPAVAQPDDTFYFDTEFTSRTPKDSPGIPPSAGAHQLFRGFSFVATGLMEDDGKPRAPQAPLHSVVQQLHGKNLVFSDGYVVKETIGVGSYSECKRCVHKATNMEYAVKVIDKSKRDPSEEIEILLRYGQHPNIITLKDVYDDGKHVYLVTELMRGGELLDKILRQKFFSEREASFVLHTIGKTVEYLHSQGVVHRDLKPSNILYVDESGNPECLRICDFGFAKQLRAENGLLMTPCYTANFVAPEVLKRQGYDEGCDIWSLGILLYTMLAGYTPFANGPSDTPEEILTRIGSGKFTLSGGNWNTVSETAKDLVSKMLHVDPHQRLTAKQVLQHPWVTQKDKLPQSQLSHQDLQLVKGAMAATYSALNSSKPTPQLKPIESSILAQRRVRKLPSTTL
PKN2 (human), sequence (Q16513 whole entry, looked up): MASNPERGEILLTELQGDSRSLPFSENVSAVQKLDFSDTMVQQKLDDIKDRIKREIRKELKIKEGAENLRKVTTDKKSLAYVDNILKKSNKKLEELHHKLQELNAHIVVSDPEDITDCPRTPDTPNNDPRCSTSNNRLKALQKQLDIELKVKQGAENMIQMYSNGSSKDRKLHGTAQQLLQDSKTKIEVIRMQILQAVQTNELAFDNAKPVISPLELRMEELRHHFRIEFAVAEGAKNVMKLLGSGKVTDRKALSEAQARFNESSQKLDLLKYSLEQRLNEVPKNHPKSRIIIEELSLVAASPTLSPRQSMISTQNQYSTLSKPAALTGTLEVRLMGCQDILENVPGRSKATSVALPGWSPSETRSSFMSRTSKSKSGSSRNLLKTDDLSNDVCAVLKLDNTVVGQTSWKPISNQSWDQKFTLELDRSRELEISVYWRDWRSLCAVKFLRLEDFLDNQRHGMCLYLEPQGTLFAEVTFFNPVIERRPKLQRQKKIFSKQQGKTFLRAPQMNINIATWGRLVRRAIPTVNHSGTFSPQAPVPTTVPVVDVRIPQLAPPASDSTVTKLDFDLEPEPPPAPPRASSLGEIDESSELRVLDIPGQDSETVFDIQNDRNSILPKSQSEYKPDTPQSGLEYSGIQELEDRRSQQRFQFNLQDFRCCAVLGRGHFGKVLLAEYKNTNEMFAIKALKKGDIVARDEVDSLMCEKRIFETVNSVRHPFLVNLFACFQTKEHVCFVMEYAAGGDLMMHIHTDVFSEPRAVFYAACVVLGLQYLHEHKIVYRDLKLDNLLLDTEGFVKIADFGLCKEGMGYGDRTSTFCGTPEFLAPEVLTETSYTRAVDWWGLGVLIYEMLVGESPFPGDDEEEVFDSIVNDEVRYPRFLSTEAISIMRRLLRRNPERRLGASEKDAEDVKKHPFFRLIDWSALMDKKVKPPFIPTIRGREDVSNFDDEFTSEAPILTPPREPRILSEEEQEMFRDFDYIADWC
NEK2 (human), sequence (P51955 whole entry, looked up): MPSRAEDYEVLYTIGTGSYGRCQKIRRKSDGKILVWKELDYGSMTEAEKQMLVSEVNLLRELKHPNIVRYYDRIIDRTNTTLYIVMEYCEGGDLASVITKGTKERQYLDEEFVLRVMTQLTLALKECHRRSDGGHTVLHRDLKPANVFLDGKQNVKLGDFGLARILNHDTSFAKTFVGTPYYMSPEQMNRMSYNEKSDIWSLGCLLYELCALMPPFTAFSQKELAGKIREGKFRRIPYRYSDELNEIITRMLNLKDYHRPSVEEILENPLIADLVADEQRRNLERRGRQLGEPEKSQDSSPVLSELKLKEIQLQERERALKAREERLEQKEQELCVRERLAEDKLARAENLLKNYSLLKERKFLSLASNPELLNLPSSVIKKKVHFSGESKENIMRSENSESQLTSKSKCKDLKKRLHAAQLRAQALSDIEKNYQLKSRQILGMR

residual activity ([1]; compound 0.1 µM): 107%
residual activity ([1]; compound 1.0 µM): 93%
residual activity ([1]; compound 10.0 µM): 62%
residual activity ([2]; compound 0.1 µM): 118%
residual activity ([2]; compound 1.0 µM): 115%
residual activity ([2]; compound 10.0 µM): 112%
residual activity ([3]; compound 0.1 µM): 69%
residual activity ([3]; compound 1.0 µM): 25%
residual activity ([3]; compound 10.0 µM): 6%
residual activity ([4]; compound 0.1 µM): 97%
residual activity ([4]; compound 1.0 µM): 55%
residual activity ([4]; compound 10.0 µM): 24%
residual activity ([5]; compound 0.1 µM): 72%
residual activity ([5]; compound 1.0 µM): 20%
residual activity ([5]; compound 10.0 µM): 8%
residual activity ([6]; compound 0.1 µM): 9%
residual activity ([6]; compound 1.0 µM): 1%
residual activity ([6]; compound 10.0 µM): 2%
residual activity ([7]; compound 0.1 µM): 99%
residual activity ([7]; compound 1.0 µM): 90%
residual activity ([7]; compound 10.0 µM): 74%
residual activity ([8]; compound 0.1 µM): 15%
residual activity ([8]; compound 1.0 µM): 6%
residual activity ([8]; compound 10.0 µM): 3%
residual activity ([9]; compound 0.1 µM): 63%
residual activity ([9]; compound 1.0 µM): 13%
residual activity ([9]; compound 10.0 µM): 4%
residual activity ([10]; compound 0.1 µM): 11%
residual activity ([10]; compound 1.0 µM): 2%
residual activity ([10]; compound 10.0 µM): 1%
residual activity ([11]; compound 0.1 µM): 95%
residual activity ([11]; compound 1.0 µM): 80%
residual activity ([11]; compound 10.0 µM): 59%
residual activity ([12]; compound 0.1 µM): 107%
residual activity ([12]; compound 1.0 µM): 106%
residual activity ([12]; compound 10.0 µM): 86%
residual activity ([13]; compound 0.1 µM): 98%
residual activity ([13]; compound 1.0 µM): 65%
residual activity ([13]; compound 10.0 µM): 70%
residual activity ([14]; compound 0.1 µM): 57%
residual activity ([14]; compound 1.0 µM): 27%
residual activity ([14]; compound 10.0 µM): 10%
residual activity ([15]; compound 0.1 µM): 20%
residual activity ([15]; compound 1.0 µM): 3%
residual activity ([15]; compound 10.0 µM): 2%
residual activity ([16]; compound 0.1 µM): 92%
residual activity ([16]; compound 1.0 µM): 57%
residual activity ([16]; compound 10.0 µM): 24%
residual activity ([17]; compound 0.1 µM): 5%
residual activity ([17]; compound 1.0 µM): 1%
residual activity ([17]; compound 10.0 µM): 1%
residual activity ([18]; compound 0.1 µM): 104%
residual activity ([18]; compound 1.0 µM): 103%
residual activity ([18]; compound 10.0 µM): 108%
residual activity ([19]; compound 0.1 µM): 10%
residual activity ([19]; compound 1.0 µM): 5%
residual activity ([19]; compound 10.0 µM): 5%
residual activity ([20]; compound 0.1 µM): 2%
residual activity ([20]; compound 1.0 µM): 1%
residual activity ([20]; compound 10.0 µM): 1%
Structure (SMILES): COc1ccc2c(c1)c1c3c(c4c5ccccc5n(C)c4c1n2CC(O)CN(C)C)C(=O)NC3=O (stereo not drawn)

residual activity ([1]; compound 1.0 µM): 101%
residual activity ([1]; compound 10.0 µM): 104%
residual activity ([2]; compound 1.0 µM): 117%
residual activity ([2]; compound 10.0 µM): 106%
residual activity ([3]; compound 1.0 µM): 104%
residual activity ([3]; compound 10.0 µM): 113%
residual activity ([4]; compound 1.0 µM): 124%
residual activity ([4]; compound 10.0 µM): 125%
residual activity ([5]; compound 1.0 µM): 108%
residual activity ([5]; compound 10.0 µM): 118%
residual activity ([6]; compound 1.0 µM): 127%
residual activity ([6]; compound 10.0 µM): 115%
residual activity ([7]; compound 1.0 µM): 120%
residual activity ([7]; compound 10.0 µM): 132%
residual activity ([8]; compound 1.0 µM): 93%
residual activity ([8]; compound 10.0 µM): 87%
residual activity ([9]; compound 1.0 µM): 119%
residual activity ([9]; compound 10.0 µM): 110%
residual activity ([10]; compound 1.0 µM): 127%
residual activity ([10]; compound 10.0 µM): 137%
residual activity ([11]; compound 1.0 µM): 107%
residual activity ([11]; compound 10.0 µM): 115%
residual activity ([12]; compound 1.0 µM): 118%
residual activity ([12]; compound 10.0 µM): 122%
residual activity ([13]; compound 1.0 µM): 93%
residual activity ([13]; compound 10.0 µM): 89%
residual activity ([14]; compound 1.0 µM): 84%
residual activity ([14]; compound 10.0 µM): 98%
residual activity ([15]; compound 1.0 µM): 90%
residual activity ([15]; compound 10.0 µM): 102%
residual activity ([16]; compound 1.0 µM): 136%
residual activity ([16]; compound 10.0 µM): 137%
residual activity ([17]; compound 1.0 µM): 102%
residual activity ([17]; compound 10.0 µM): 117%
residual activity ([18]; compound 1.0 µM): 101%
residual activity ([18]; compound 10.0 µM): 109%
residual activity ([19]; compound 1.0 µM): 108%
residual activity ([19]; compound 10.0 µM): 101%
residual activity ([20]; compound 1.0 µM): 120%
residual activity ([20]; compound 10.0 µM): 121%
Structure (SMILES): Cc1cccc(Nc2nn(C)c3ncnc(N)c23)c1

residual activity ([2]; compound 1.0 µM): 73%
residual activity ([2]; compound 10.0 µM): 39%
residual activity ([3]; compound 1.0 µM): 55%
residual activity ([3]; compound 10.0 µM): 13%
residual activity ([4]; compound 1.0 µM): 84%
residual activity ([4]; compound 10.0 µM): 34%
residual activity ([5]; compound 10.0 µM): 58%
residual activity ([6]; compound 1.0 µM): 76%
residual activity ([6]; compound 10.0 µM): 15%
residual activity ([21]; compound 1.0 µM): 83%
residual activity ([21]; compound 10.0 µM): 74%
residual activity ([7]; compound 1.0 µM): 85%
residual activity ([7]; compound 10.0 µM): 66%
residual activity ([8]; compound 1.0 µM): 76%
residual activity ([8]; compound 10.0 µM): 37%
residual activity ([9]; compound 1.0 µM): 69%
residual activity ([9]; compound 10.0 µM): 36%
residual activity ([10]; compound 1.0 µM): 102%
residual activity ([10]; compound 10.0 µM): 68%
residual activity ([11]; compound 1.0 µM): 83%
residual activity ([11]; compound 10.0 µM): 81%
residual activity ([12]; compound 1.0 µM): 91%
residual activity ([12]; compound 10.0 µM): 78%
residual activity ([13]; compound 1.0 µM): 99%
residual activity ([13]; compound 10.0 µM): 77%
residual activity ([22]; compound 1.0 µM): 96%
residual activity ([22]; compound 10.0 µM): 84%
residual activity ([14]; compound 1.0 µM): 77%
residual activity ([14]; compound 10.0 µM): 46%
residual activity ([15]; compound 1.0 µM): 84%
residual activity ([15]; compound 10.0 µM): 67%
residual activity ([23]; compound 1.0 µM): 112%
residual activity ([23]; compound 10.0 µM): 116%
residual activity ([16]; compound 1.0 µM): 71%
residual activity ([16]; compound 10.0 µM): 24%
residual activity ([17]; compound 1.0 µM): 77%
residual activity ([17]; compound 10.0 µM): 31%
residual activity ([18]; compound 1.0 µM): 74%
residual activity ([18]; compound 10.0 µM): 58%
residual activity ([19]; compound 1.0 µM): 83%
residual activity ([19]; compound 10.0 µM): 46%
residual activity ([20]; compound 1.0 µM): 44%
residual activity ([20]; compound 10.0 µM): 7%
Structure (SMILES): O=C1Nc2nc(-c3c(O)cccc3OCC3CC3)cc(C3CCCNC3)c2CO1 (stereo not drawn)
